Experimental data as given in ChEMBL document CHEMBL1201862, “PubChem BioAssay data set” (2004).
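Results reflect a 48-hour exposure of cells in 96-well plates to compound at five concentrations. At the GI50, growth is halved.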 The source made the active and inactive calls. Rule as the data show it: active = GI50 up to about 1.1 µM and inactive = higher.

Experiments:
Assay in all cases: NCI anticancer screen, dose series, 48 h
786-0 = tested on: 786-0
A549 = tested on: A549
ACHN = tested on: ACHN
BT-549 = tested on: BT-549
CAKI-1 = tested on: CAKI-1
COLO 205 = tested on: COLO 205
EKVX = tested on: EKVX
HCC 2998 = tested on: HCC 2998
HCT-116 = tested on: HCT-116
HCT-15 = tested on: HCT-15
HL-60 = tested on: HL-60
HOP-62 = tested on: HOP-62
HOP-92 = tested on: HOP-92
HT-29 = tested on: HT-29
Hs-578T = tested on: Hs-578T
IGROV-1 = tested on: IGROV-1
K562 = tested on: K562
KM12 = tested on: KM12
LOX IMVI = tested on: LOX IMVI
M14 = tested on: M14
MCF7 = tested on: MCF7
MDA-MB-231 = tested on: MDA-MB-231
MDA-MB-435 = tested on: MDA-MB-435
MDA-N = tested on: MDA-N
MOLT-4 = tested on: MOLT-4
Malme-3M = tested on: Malme-3M
NCI-H226 = tested on: NCI-H226
NCI-H23 = tested on: NCI-H23
NCI-H460 = tested on: NCI-H460
NCI-H522 = tested on: NCI-H522
NCI/ADR-RES = tested on: NCI/ADR-RES
OVCAR-4 = tested on: OVCAR-4
OVCAR-5 = tested on: OVCAR-5
OVCAR-8 = tested on: OVCAR-8
PC-3 = tested on: PC-3
RPMI-8226 = tested on: RPMI-8226
RXF 393 = tested on: RXF 393
SF-268 = tested on: SF-268
SF-295 = tested on: SF-295
SF-539 = tested on: SF-539
SK-MEL-28 = tested on: SK-MEL-28
SK-MEL-2 = tested on: SK-MEL-2
SK-MEL-5 = tested on: SK-MEL-5
SK-OV-3 = tested on: SK-OV-3
SN12C = tested on: SN12C
SNB-19 = tested on: SNB-19
SNB-75 = tested on: SNB-75
SR = tested on: SR
SW-620 = tested on: SW-620
TK-10 = tested on: TK-10
U-251 = tested on: U-251
UACC-257 = tested on: UACC-257
UACC-62 = tested on: UACC-62
UO-31 = tested on: UO-31
A498 = tested on: A498
CCRF-CEM = tested on: CCRF-CEM
DU-145 = tested on: DU-145
OVCAR-3 = tested on: OVCAR-3
T47D = tested on: T47D

Measured: GI50

Brc1ccc(C2=NCSC(c3ccc(Br)cc3)=N2)cc1
inactive: 786-0 10.7 µM | A549 32.3 µM | ACHN 21.7 µM | BT-549 52.8 µM | CAKI-1 7.98 µM | COLO 205 59.7 µM | EKVX 11.6 µM | HCC 2998 23 µM | HCT-116 16.6 µM | HL-60 11 µM | HOP-62 39.1 µM | HOP-92 37.7 µM | HT-29 27.4 µM | Hs-578T 44.1 µM | IGROV-1 33.2 µM | K562 31 µM | KM12 24.4 µM | LOX IMVI 25.4 µM | M14 30.5 µM | MCF7 32.2 µM | MDA-MB-231 68.9 µM | MDA-MB-435 28.8 µM | MDA-N 20.1 µM | MOLT-4 16.1 µM | Malme-3M 35.2 µM | NCI-H226 34.3 µM | NCI-H23 32 µM | NCI-H460 18.4 µM | NCI-H522 22.2 µM | NCI/ADR-RES 30.5 µM | OVCAR-4 41.9 µM | OVCAR-5 76 µM | OVCAR-8 37.8 µM | PC-3 21.2 µM | RPMI-8226 16.1 µM | RXF 393 8.53 µM | SF-268 53.3 µM | SF-295 26.9 µM | SF-539 31.5 µM | SK-MEL-28 46.5 µM | SK-MEL-2 16.6 µM | SK-MEL-5 25.2 µM | SK-OV-3 43.1 µM | SN12C 29.6 µM | SNB-19 31.8 µM | SNB-75 24.3 µM | SR 22.2 µM | SW-620 12.1 µM | TK-10 17.6 µM | U-251 16.7 µM | UACC-257 19.1 µM | UACC-62 5.3 µM | UO-31 15.4 µM
28.2 µM: HCT-15

C=C(C)C(=O)N1c2ccc(OC)cc2CC1C(=O)OCC (stereo not given)
inactive: 786-0 > 100 µM | A498 > 100 µM | A549 > 100 µM | ACHN > 100 µM | BT-549 > 100 µM | CAKI-1 > 100 µM | CCRF-CEM > 100 µM | COLO 205 > 100 µM | DU-145 > 100 µM | EKVX > 100 µM | HCC 2998 > 100 µM | HCT-116 > 100 µM | HL-60 > 10 µM | HOP-62 > 100 µM | HT-29 > 100 µM | Hs-578T > 100 µM | IGROV-1 > 100 µM | K562 > 100 µM | KM12 > 100 µM | M14 > 100 µM | MCF7 > 100 µM | MDA-MB-231 > 100 µM | MDA-N > 100 µM | MOLT-4 > 100 µM | NCI-H226 > 100 µM | NCI-H23 > 100 µM | NCI-H460 > 100 µM | NCI-H522 > 100 µM | NCI/ADR-RES > 100 µM | OVCAR-3 > 100 µM | OVCAR-4 > 100 µM | OVCAR-5 > 100 µM | OVCAR-8 > 100 µM | PC-3 > 100 µM | SF-268 > 100 µM | SF-295 > 100 µM | SF-539 > 100 µM | SK-MEL-28 > 100 µM | SK-MEL-2 > 100 µM | SK-MEL-5 > 100 µM | SK-OV-3 > 100 µM | SN12C > 100 µM | SNB-19 > 100 µM | SNB-75 45.2 µM | SR > 100 µM | SW-620 > 100 µM | T47D 26.7 µM | TK-10 > 100 µM | U-251 > 100 µM | UACC-257 > 100 µM | UACC-62 > 100 µM | UO-31 > 100 µM
> 100 µM: HCT-15

CC(C)(C)NC(=O)N1N=C(c2ccccc2)C1c1ccccc1 (stereo not given)
inactive: 786-0 15.7 µM | A498 > 100 µM | A549 31.5 µM | ACHN 34.5 µM | BT-549 29.9 µM | CAKI-1 26.4 µM | CCRF-CEM 22.6 µM | COLO 205 35.7 µM | DU-145 > 100 µM | EKVX 42.6 µM | HCC 2998 > 100 µM | HCT-116 19.7 µM | HL-60 32.6 µM | HOP-92 22.3 µM | HT-29 18 µM | Hs-578T 48.3 µM | IGROV-1 59.8 µM | KM12 47.6 µM | LOX IMVI 35.7 µM | M14 61.5 µM | MCF7 41.7 µM | MDA-MB-231 95.9 µM | MDA-N 44.6 µM | Malme-3M 25.3 µM | NCI-H226 48.4 µM | NCI-H23 35.9 µM | NCI-H460 41.1 µM | NCI-H522 19.6 µM | NCI/ADR-RES 35.2 µM | OVCAR-3 21.5 µM | OVCAR-4 56.5 µM | OVCAR-5 > 100 µM | OVCAR-8 40.2 µM | PC-3 26.6 µM | RPMI-8226 22.5 µM | RXF 393 14 µM | SF-268 66.5 µM | SF-295 35.6 µM | SF-539 22.1 µM | SK-MEL-28 48.3 µM | SK-MEL-5 20.2 µM | SK-OV-3 > 100 µM | SN12C 43.5 µM | SNB-19 34.3 µM | SNB-75 87.1 µM | SW-620 31.1 µM | T47D 42.7 µM | TK-10 26 µM | U-251 69.3 µM | UACC-257 25.5 µM | UACC-62 52.6 µM | UO-31 18.2 µM
23.9 µM: HCT-15
